Laboratory results: patent US20250122192A1, “5-PYRIMIDINECARBOXAMIDE DERIVATIVES AND METHODS OF USING THE SAME” (Rgenta Therapeutics, Inc., priority 2021, published 2025)
Structures can show the parent of a compound that is named as a salt.

Test system: PMS1
Assay: Mini-gene reporter assay-PMS1
Format: cell-based
Conditions: Homo sapiens, HEK293, PMS1 mini-gene firefly luciferase reporter transiently transfected into HEK293 cells; read-out: PMS1 IC50
How it was run: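 Compound dilution series in duplicate added to transiently transfected HEK293 reporter cells, then incubated; EC50 from Levenberg-Marquardt fit of luminescence. The reporter joins the alternatively skipped exon, its neighbouring introns and exons to firefly luciferase, so induced inclusion gives more signal.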

| SMILES | IC50 |
| --- | --- |
| CCOc1nc(N2CC3CCCC(C2)N3)ncc1C(=O)Nc1cc(F)c2nc(C)cn2c1 [Compound 185] | 1000 to 3000 nM |
| CCOc1nc(N(C)[C@@H]2C[C@H]3CC[C@@H](C2)N3)ncc1C(=O)Nc1cc(F)c2nc(C)cn2c1 [Compound 186] | < 500 nM |
| CCOc1nc(N2CCCC2CNC)ncc1C(=O)Nc1cc(F)c2nc(C)cn2c1 (stereo not shown) [Compound 188] | 1000 to 3000 nM |
| COCc1nc(N(C)CC2CNCCO2)ncc1C(=O)Nc1cc(F)c2nc(C)cn2c1 (stereo not shown) [Compound 189] | > 3000 nM |
| CCOc1nc(N(C)C2CC3CCC(C2)N3)ncc1C(=O)Nc1cc(F)c2nc(C)cn2c1 (stereo not shown) [Compound 190] | < 500 nM |
| CCOc1nc(N2CCNC(C)CC2)ncc1C(=O)Nc1cc(F)c2nc(C)cn2c1 (stereo not shown) [Compound 191] | < 500 nM |
| CCOc1nc(N2CCNC3CC32)ncc1C(=O)Nc1cc(F)c2nc(C)cn2c1 (stereo not shown) [Compound 192] | 500 to 1000 nM |
| CCOc1nc(N2CCC[C@H]3CNC[C@H]32)ncc1C(=O)Nc1cc(F)c2nc(C)cn2c1 [Compound 193] | 500 to 1000 nM |
| CCOc1nc(N2CCCC(N3CCNCC3)C2)ncc1C(=O)Nc1cc(F)c2nc(C)cn2c1 (stereo not shown) [Compound 194] | 500 to 1000 nM |
| CCOc1nc(N2CCOC3(CCNC3)C2)ncc1C(=O)Nc1cc(F)c2nc(C)cn2c1 (stereo not shown) [Compound 195] | 1000 to 3000 nM |
| CCOc1nc(N2C[C@@H]3CCCN[C@@H]3C2)ncc1C(=O)Nc1cc(F)c2nc(C)cn2c1 [Compound 197] | < 500 nM |
| CCOc1nc(N(C)CC2CCCN2)ncc1C(=O)Nc1cc(F)c2nc(C)cn2c1 (stereo not shown) [Compound 200] | 1000 to 3000 nM |
| CCOc1nc(N2CCC3CCNCC32)ncc1C(=O)Nc1cc(F)c2nc(C)cn2c1 (stereo not shown) [Compound 201] | < 500 nM |
| CCNC1CN(c2ncc(C(=O)Nc3cc(F)c4nc(C)cn4c3)c(OCC)n2)C1 [Compound 202] | 500 to 1000 nM |
| CCOc1nc(N2CCC(C3CCCN3)CC2)ncc1C(=O)Nc1cc(F)c2nc(C)cn2c1 (stereo not shown) [Compound 203] | < 500 nM |
| CCOc1nc(N2CCC3(CC2)CNCCO3)ncc1C(=O)Nc1cc(F)c2nc(C)cn2c1 [Compound 204] | 500 to 1000 nM |
| CCOc1nc(N2CCNCCC2C)ncc1C(=O)Nc1cc(F)c2nc(C)cn2c1 (stereo not shown) [Compound 205] | 500 to 1000 nM |
| CCOc1nc(N2CC3(CNC3)C2)ncc1C(=O)Nc1cc(F)c2nc(C)cn2c1 [Compound 206] | < 500 nM |
| CCOc1nc(N2CCC3(CCNCC3)CC2)ncc1C(=O)Nc1cc(F)c2nc(C)cn2c1 [Compound 207] | < 500 nM |
| CCOc1nc(N2CCC3(CCCNC3)C2)ncc1C(=O)Nc1cc(F)c2nc(C)cn2c1 (stereo not shown) [Compound 208] | < 500 nM |
| CCOc1nc(N(C)C2CCNCC2)ncc1C(=O)Nc1cc(F)c2nc(C)cn2c1 [Compound 241] | < 500 nM |
| COc1nc(N(C)C2CCNCC2)ncc1C(=O)Nc1cn2cc(C)nc2c(C)n1 [Compound 253, N-(2,8-dimethylimidazo[1,2-a]pyrazin-6-yl)-4-methoxy-2-(methyl(piperidin-4-yl)amino) pyrimidine-5-carboxamide formate] | < 500 nM |
| CCOc1nc(N(C)C2CCNCC2)ncc1C(=O)Nc1cn2cc(C)nc2cn1 [Compound 256, 4-ethoxy-2-(methyl(piperidin-4-yl)amino)-N-(2-methylimidazo[1,2-a]pyrazin-6-yl)pyrimidine-5-carboxamide] | < 500 nM |
| COc1nc(N(C)C2CCNCC2)ncc1C(=O)Nc1cn2cc(C)nc2cn1 [Compound 257, 4-methoxy-2-(methyl(piperidin-4-yl)amino)-N-(2-methylimidazo[1,2-a]pyrazin-6-yl)pyrimidine-5-carboxamide formate] | 500 to 1000 nM |
| CCOc1nc(N(CC)C2CCNCC2)ncc1C(=O)Nc1cc(F)c2nn(C)cc2c1 [Compound 258, 4-ethoxy-2-(ethyl(piperidin-4-yl)amino)-N-(7-fluoro-2-methyl-2H-indazol-5-yl)pyrimidine-5-carboxamide formate] | < 500 nM |

Other lines, results leading:

| IC50 | SMILES |
| --- | --- |
| 500 to 1000 nM | CCOc1nc(N(C)CC2CCNC2)ncc1C(=O)Nc1cc(F)c2nc(C)cn2c1 (stereo not shown) [Compound 210] |
| < 500 nM | CCOc1nc(N2CCC(CNC)C2)ncc1C(=O)Nc1cc(F)c2nc(C)cn2c1 (stereo not shown) [Compound 211] |
| < 500 nM | CCOc1nc(N2CC3(CCNC3)C2)ncc1C(=O)Nc1cc(F)c2nc(C)cn2c1 [Compound 212] |
| < 500 nM | CCOc1nc(N2CCNC(C)C2C)ncc1C(=O)Nc1cc(F)c2nc(C)cn2c1 (stereo not shown) [Compound 213] |
| < 500 nM | CCNC1CCN(c2ncc(C(=O)Nc3cc(F)c4nc(C)cn4c3)c(OCC)n2)CC1 [Compound 214] |
| 1000 to 3000 nM | CCOc1nc(N(CC)C2CCCNC2)ncc1C(=O)Nc1cc(F)c2nc(C)cn2c1 (stereo not shown) [Compound 215] |
| < 500 nM | CCOc1nc(N2CCC(CNC)CC2)ncc1C(=O)Nc1cc(F)c2nc(C)cn2c1 [Compound 216] |
| 1000 to 3000 nM | CCOc1nc(N(C)CC2CCCNC2)ncc1C(=O)Nc1cc(F)c2nc(C)cn2c1 (stereo not shown) [Compound 217] |
| > 3000 nM | CCOc1nc(N2CC(N3CCNCC3)C2)ncc1C(=O)Nc1cc(F)c2nc(C)cn2c1 [Compound 218] |
| < 500 nM | CCOc1nc(N2CCC3(CCNCC3)C2)ncc1C(=O)Nc1cc(F)c2nc(C)cn2c1 [Compound 219] |
| < 500 nM | CCOc1nc(N2CCC3(CNC3)C2)ncc1C(=O)Nc1cc(F)c2nc(C)cn2c1 [Compound 220] |
| 1000 to 3000 nM | CCOc1nc(N2CCN(C3CNC3)CC2)ncc1C(=O)Nc1cc(F)c2nc(C)cn2c1 [Compound 221] |
| 1000 to 3000 nM | CCOc1nc(N2CCC(N3CCNCC3)CC2)ncc1C(=O)Nc1cc(F)c2nc(C)cn2c1 [Compound 222] |
| > 3000 nM | CCOc1nc(N2CCOC3(CCNCC3)C2)ncc1C(=O)Nc1cc(F)c2nc(C)cn2c1 [Compound 223] |
| 1000 to 3000 nM | CCOc1nc(N2CCN(C3CCNC3)CC2)ncc1C(=O)Nc1cc(F)c2nc(C)cn2c1 (stereo not shown) [Compound 224] |
| < 500 nM | CCOc1nc(N2CCC3(CCNC3)CC2)ncc1C(=O)Nc1cc(F)c2nc(C)cn2c1 [Compound 225] |
| < 500 nM | CCOc1nc(N2CCN[C@@H](C(C)C)C2)ncc1C(=O)Nc1cc(F)c2nc(C)cn2c1 [Compound 226] |
| 500 to 1000 nM | CCOc1nc(N2CCCC(CNC)C2)ncc1C(=O)Nc1cc(F)c2nc(C)cn2c1 (stereo not shown) [Compound 228] |
| < 500 nM | CCOc1nc(N2CCC(NC)C2)ncc1C(=O)Nc1cc(F)c2nc(C)cn2c1 (stereo not shown) [Compound 229] |
| < 500 nM | CCOc1nc(N2CC(C)NCC2C)ncc1C(=O)Nc1cc(F)c2nc(C)cn2c1 (stereo not shown) [Compound 230] |

| IC50 | SMILES |
| --- | --- |
| < 500 nM | CCOc1nc(N2C[C@@H](C)N[C@@H](C)C2)ncc1C(=O)Nc1cc(F)c2nc(C)cn2c1 [Compound 231] |
| 500 to 1000 nM | CCOc1nc(N2CCCC(NC)C2)ncc1C(=O)Nc1cc(F)c2nc(C)cn2c1 (stereo not shown) [Compound 232] |
| 500 to 1000 nM | CCOc1nc(N2C[C@@H]3C[C@H]2CN3)ncc1C(=O)Nc1cc(F)c2nc(C)cn2c1 [Compound 233] |
| < 500 nM | CCOc1nc(N2CCC3(CCNC3)C2)ncc1C(=O)Nc1cc(F)c2nc(C)cn2c1 (stereo not shown) [Compound 234] |
| < 500 nM | CCOc1nc(N2CCC3(CC2)CNC3)ncc1C(=O)Nc1cc(F)c2nc(C)cn2c1 [Compound 235] |
| > 3000 nM | CCOc1nc(N(C)CC2CCNCC2)ncc1C(=O)Nc1cc(F)c2nc(C)cn2c1 [Compound 237] |
| < 500 nM | CCOc1nc(N(C)C2CCNC2)ncc1C(=O)Nc1cc(F)c2nc(C)cn2c1 (stereo not shown) [Compound 238] |
| < 500 nM | CCOc1nc(N2CC3(CCNCC3)C2)ncc1C(=O)Nc1cc(F)c2nc(C)cn2c1 [Compound 239] |
| < 500 nM | CCOc1nc(N2CCNCC2C)ncc1C(=O)Nc1cc(F)c2nc(C)cn2c1 (stereo not shown) [Compound 240] |
| < 500 nM | CCOc1nc(N2CC(NC)C2)ncc1C(=O)Nc1cc(F)c2nc(C)cn2c1 [Compound 242] |
| < 500 nM | CCOc1nc(N2CCNC(C)C2)ncc1C(=O)Nc1cc(F)c2nc(C)cn2c1 (stereo not shown) [Compound 243] |
| < 500 nM | CCOc1nc(N(C)C2CCCNC2)ncc1C(=O)Nc1cc(F)c2nc(C)cn2c1 (stereo not shown) [Compound 244] |
| < 500 nM | CCOc1nc(N2CC3(CC(NC)CO3)C2)ncc1C(=O)Nc1cc(F)c2nc(C)cn2c1 (stereo not shown) [Compound 246] |
| < 500 nM | CCNC1COC2(C1)CN(c1ncc(C(=O)Nc3cc(F)c4nc(C)cn4c3)c(OCC)n1)C2 (stereo not shown) [Compound 247] |
| < 500 nM | CCOc1nc(N2CC3(CC(NC(C)C)CO3)C2)ncc1C(=O)Nc1cc(F)c2nc(C)cn2c1 (stereo not shown) [Compound 248] |
| > 3000 nM | CCOc1nc(N(CC)C2CCCNCC2)ncc1C(=O)Nc1cn2cc(C)nc2c(C)n1 (stereo not shown) [Compound 249] |
| 1000 to 3000 nM | CCOc1nc(NC2CCNCC2)ncc1C(=O)Nc1cn2cc(C)nc2c(C)n1 [Compound 251, N-(2,8-dimethylimidazo[1,2-a]pyrazin-6-yl)-4-ethoxy-2-(piperidin-4-ylamino) pyrimidine-5-carboxamide formate] |
| > 3000 nM | CCOc1nc(N2CCN(CC)CC2)ncc1C(=O)Nc1cc(F)c2nn(C)cc2c1 [Compound 252, 4-ethoxy-2-(4-ethylpiperazin-1-yl)-N-(7-fluoro-2-methyl-2H-indazol-5-yl)pyrimidine-5-carboxamide hydrochloride] |
| > 3000 nM | CCOc1nc(N2CC(NC)C2)ncc1C(=O)Nc1cc(F)c2nn(C)cc2c1 [Compound 254, 4-ethoxy-N-(7-fluoro-2-methyl-2H-indazol-5-yl)-2-(3-(methylamino)azetidin-1-yl)pyrimidine-5-carboxamide hydrochloride] |
| > 3000 nM | CCOc1nc(N2CC(NC)C2)ncc1C(=O)Nc1ccc2nn(C)cc2c1 [Compound 255, 4-ethoxy-N-(2-methyl-2H-indazol-5-yl)-2-(3-(methylamino)azetidin-1-yl)pyrimidine-5-carboxamide] |

Same assay, conditions: Homo sapiens; at 5 μM; PMS1 mini-gene firefly luciferase reporter in HEK293 cells; read-out: PMS1% Effect at 5 μM

| SMILES | activation at 5 µM |
| --- | --- |
| CCOc1nc(N2CCCC2C(=O)N2CCNCC2)ncc1C(=O)Nc1cc(F)c2nc(C)cn2c1 (stereo not shown) [Compound 196] | < 50% |
| CCOc1nc(N2CCNCC2C(C)C)ncc1C(=O)Nc1cc(F)c2nc(C)cn2c1 (stereo not shown) [Compound 227] | < 50% |
